This passage reports IC50 results from US11834453B2, “Substituted pyrimido[5,4-d]pyrimidines as HER2 inhibitors” (Array BioPharma Inc., priority 2020, dated 2023).

pIC50: −log10 of the molar value. Structures can show the parent of a compound that is named as a salt. Where two headings read alike, the source gives them in different places.

In assay [1] the target is ErbB2 insYVMA (HER2-YVMA, SEQ ID NO: 2) (Homo sapiens, UniProt P04626, INS775YVMA/P1170A). Description: biochemical. The note with it: ErbB2 insYVMA enzyme assay; for pIC50: read-out: Assay 1 IC50; for IC50: Assay 1 IC50 (nM).
In another assay the target is ErbB2 WT (Homo sapiens (Human), UniProt P04626). The assay is described as follows: ErbB enzyme assay (CisBio HTRF KinEASE-TK), Assay 2. In kind it is biochemical. The method in brief: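 Readout is HTRF KinEASE-TK, using Sa-XL665 and cryptate antibody for 1 h at 22 °C, as percent of control between DMSO-only (100) and pre-quenched (0) reactions. The kinase reaction runs 30 min at 22 °C with 1 mM ATP and 250 nM biotinylated TK substrate, in HEPES pH 7.4 with MgCl2 and 2% DMSO.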
Chain of ErbB2 WT (P04626 23-1255): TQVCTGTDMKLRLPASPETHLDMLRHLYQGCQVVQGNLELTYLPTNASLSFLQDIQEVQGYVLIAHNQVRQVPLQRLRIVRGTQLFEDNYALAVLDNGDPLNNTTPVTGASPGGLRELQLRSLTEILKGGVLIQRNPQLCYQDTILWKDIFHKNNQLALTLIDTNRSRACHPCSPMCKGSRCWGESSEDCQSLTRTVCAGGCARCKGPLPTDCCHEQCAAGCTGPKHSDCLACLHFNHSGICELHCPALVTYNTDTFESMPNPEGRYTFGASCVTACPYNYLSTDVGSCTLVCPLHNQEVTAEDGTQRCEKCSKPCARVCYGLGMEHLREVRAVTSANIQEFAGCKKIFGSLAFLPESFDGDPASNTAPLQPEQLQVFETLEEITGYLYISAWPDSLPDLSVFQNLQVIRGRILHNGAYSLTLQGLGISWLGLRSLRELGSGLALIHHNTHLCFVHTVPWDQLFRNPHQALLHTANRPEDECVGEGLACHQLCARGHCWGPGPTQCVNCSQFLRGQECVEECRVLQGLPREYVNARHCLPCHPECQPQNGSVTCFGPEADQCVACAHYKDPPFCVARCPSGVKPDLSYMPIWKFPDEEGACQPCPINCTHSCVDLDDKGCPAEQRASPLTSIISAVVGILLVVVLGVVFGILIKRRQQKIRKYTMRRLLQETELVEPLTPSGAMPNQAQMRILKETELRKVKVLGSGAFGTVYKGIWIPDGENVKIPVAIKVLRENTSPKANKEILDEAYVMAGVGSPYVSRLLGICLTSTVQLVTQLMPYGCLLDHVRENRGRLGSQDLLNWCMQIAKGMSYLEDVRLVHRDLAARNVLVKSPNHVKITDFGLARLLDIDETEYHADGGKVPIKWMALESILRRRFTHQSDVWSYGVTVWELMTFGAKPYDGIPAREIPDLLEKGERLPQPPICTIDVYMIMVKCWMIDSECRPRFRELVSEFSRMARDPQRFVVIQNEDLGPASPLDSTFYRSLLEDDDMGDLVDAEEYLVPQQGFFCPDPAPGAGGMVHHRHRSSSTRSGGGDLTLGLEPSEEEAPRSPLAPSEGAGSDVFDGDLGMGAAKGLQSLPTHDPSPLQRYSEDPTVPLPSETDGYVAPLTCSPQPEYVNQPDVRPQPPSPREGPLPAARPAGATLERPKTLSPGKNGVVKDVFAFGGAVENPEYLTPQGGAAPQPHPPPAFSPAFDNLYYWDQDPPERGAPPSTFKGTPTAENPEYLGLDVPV
For orientation: TR-FRET usually uses a lanthanide donor and a delayed reading to cut background.

Another assay concerns the target EGFR (Homo sapiens (Human), UniProt P00533). Description: ErbB enzyme assay (CisBio HTRF KinEASE-TK), Assay 3. The format is biochemical. The method in brief:
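IC50 was taken where a 4-parameter logistic fit crossed 50 percent of control (DMSO 100, pre-quenched 0), read by ratiometric HTRF. Reactions ran 30 min at 22 °C with 1 mM ATP and 250 nM TK-substrate biotin in pH 7.4 HEPES buffer with MgCl2, Triton X-100 and 2% DMSO.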

Assay [2] has as its target ErbB2 with Exon 20 YVMA insertion (HER2-YVMA) (Homo sapiens (Human), UniProt P04626, INS775YVMA). Description: Cellular phosphorylation assay, constitutive ErbB2 phosphorylation (Y1196) in engineered NIH 3T3 cells, Assay 4. In kind it is cell-based. The method, boiled down:
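In-cell Western in NIH 3T3 cells carrying ErbB2 exon 20 YVMA insertion, with no ligand stimulation. One hour compound exposure at 37 °C before fixation and anti-pY1196 plus GAPDH staining with dual-wavelength fluorescence. IC50 derived after GAPDH normalization.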

For a further assay, the target named is EGFR wild type (EGFR WT) (Homo sapiens (Human), UniProt P00533). The assay is described as follows: Cellular phosphorylation assay, EGF-stimulated EGFR phosphorylation in engineered NIH 3T3 cells, Phospho-EGFR DuoSet IC ELISA, Assay 5. In kind it is cell-based. The method, boiled down: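 Phospho-EGFR ELISA on lysates of engineered NIH 3T3 EGFR WT cells, IC50 derived from concentration curves. Cells plated at 20,000/well overnight, given compound dilutions 1 h at 37 °C, then rEGF 100 ng/ml for a further 10 min before lysis.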
Chain of EGFR wild type (EGFR WT) (P00533 25-1210): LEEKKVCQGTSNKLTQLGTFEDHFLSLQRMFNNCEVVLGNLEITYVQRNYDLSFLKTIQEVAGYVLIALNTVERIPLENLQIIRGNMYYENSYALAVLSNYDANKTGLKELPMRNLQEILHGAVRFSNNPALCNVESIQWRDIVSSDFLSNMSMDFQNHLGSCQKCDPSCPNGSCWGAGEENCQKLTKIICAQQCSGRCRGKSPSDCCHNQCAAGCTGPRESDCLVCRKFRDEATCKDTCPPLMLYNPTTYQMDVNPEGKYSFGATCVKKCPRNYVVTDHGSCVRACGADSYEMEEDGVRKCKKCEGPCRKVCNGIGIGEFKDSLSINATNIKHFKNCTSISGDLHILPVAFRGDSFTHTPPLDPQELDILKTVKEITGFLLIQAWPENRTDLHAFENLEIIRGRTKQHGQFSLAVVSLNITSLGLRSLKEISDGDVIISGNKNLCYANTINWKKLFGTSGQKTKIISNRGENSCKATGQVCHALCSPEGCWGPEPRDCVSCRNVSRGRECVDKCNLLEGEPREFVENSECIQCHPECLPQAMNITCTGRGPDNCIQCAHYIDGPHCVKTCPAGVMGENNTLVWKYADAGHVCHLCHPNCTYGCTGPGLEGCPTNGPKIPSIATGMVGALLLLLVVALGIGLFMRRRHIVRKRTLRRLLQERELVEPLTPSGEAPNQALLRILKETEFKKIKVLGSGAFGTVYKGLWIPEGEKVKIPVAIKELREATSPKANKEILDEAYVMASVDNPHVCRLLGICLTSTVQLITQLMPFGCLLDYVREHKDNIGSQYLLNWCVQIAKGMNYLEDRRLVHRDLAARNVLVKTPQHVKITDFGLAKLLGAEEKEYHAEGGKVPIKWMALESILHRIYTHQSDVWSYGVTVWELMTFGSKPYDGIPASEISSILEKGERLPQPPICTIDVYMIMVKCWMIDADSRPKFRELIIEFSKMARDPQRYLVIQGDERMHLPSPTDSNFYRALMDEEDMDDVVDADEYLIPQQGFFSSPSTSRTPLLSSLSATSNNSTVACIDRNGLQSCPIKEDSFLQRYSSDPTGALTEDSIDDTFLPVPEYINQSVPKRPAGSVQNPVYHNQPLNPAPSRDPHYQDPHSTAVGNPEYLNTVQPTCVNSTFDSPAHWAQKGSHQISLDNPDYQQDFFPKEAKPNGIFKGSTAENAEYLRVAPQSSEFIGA
(In general: ELISA stands for enzyme-linked immunosorbent assay.)

Chain of EGFR (P00533 25-1210): as above
Chain of ErbB2 with Exon 20 YVMA insertion (HER2-YVMA) (P04626 other isoform, or with tags, fused parts or gaps ins YVMA behind 775): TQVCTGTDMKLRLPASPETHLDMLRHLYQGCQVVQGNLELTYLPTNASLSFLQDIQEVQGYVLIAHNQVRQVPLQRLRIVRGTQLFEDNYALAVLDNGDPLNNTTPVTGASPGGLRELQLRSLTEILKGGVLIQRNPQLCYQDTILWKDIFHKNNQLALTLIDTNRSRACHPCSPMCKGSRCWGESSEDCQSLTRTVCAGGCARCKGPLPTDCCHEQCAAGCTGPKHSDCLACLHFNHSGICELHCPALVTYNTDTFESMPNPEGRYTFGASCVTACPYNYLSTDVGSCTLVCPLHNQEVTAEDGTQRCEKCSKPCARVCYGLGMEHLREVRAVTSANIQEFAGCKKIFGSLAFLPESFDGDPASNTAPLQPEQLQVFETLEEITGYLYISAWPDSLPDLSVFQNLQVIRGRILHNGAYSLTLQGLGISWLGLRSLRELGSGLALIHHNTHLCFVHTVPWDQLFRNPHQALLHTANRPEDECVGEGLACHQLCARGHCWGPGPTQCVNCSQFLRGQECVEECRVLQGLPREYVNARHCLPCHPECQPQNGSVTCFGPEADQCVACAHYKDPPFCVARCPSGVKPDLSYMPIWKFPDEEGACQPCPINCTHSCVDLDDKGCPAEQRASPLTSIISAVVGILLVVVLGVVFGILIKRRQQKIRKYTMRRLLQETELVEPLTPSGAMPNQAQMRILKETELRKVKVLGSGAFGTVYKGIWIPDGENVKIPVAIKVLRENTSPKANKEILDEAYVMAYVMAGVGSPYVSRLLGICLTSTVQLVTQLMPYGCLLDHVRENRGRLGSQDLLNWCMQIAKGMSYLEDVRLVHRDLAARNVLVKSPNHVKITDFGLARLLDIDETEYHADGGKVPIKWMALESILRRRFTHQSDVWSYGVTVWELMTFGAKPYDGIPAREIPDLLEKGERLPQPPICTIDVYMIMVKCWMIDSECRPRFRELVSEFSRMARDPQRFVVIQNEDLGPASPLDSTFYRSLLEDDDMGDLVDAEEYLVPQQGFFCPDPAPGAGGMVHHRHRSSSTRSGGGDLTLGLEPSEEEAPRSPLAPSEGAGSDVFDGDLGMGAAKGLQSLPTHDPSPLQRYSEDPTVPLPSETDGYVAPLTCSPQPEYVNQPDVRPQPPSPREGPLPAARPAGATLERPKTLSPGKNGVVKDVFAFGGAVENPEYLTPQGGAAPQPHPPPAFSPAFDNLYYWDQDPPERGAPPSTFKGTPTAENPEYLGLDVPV

Turning to `Clc1cc(Nc2ncnc3cnc(N4CCC4)nc23)ccc1Oc1ccn2ncnc2c1` [Example 112, N-(4-([1,2,4]triazolo[1,5-a]pyridin-7-yloxy)-3-chlorophenyl)-6-(azetidin-1-yl)pyrimido[5,4-d]pyrimidin-4-amine], the negative logarithm of the IC50 (pIC50) – broadly, the negative decadic logarithm of the IC50, by convention in mol/L – in assay [1] was 7.73; at ErbB2 WT it was 7.36; against EGFR, at most 5.00; in assay [2], 6.72; on EGFR wild type (EGFR WT) it was at most 5.30.

As to `CN(c1ncc2ncnc(Nc3ccc(Oc4ccc5c(c4)ncn5C)c(Cl)c3)c2n1)[C@H]1CCOC1` [Example 117, (S)—N8-(3-chloro-4-((1-methyl-1H-benzo[d]imidazol-5-yl)oxy)phenyl)-N2-methyl-N2-(tetrahydrofuran-3-yl)pyrimido[5,4-d]pyrimidine-2,8-diamine], the pIC50 is 7.33 in assay [1]; 7.03 against ErbB2 WT; at most 5.00 on EGFR; 8.08 in assay [2]; at most 5.30 on EGFR wild type (EGFR WT).

Take `Cc1cc(Nc2ncnc3cnc(N4C[C@H]5C[C@@H]4CO5)nc23)ccc1Oc1ccn2ncnc2c1` [Example 121, N-(4-([1,2,4]triazolo[1,5-a]pyridin-7-yloxy)-3-methylphenyl)-6-((1R,4R)-2-oxa-5-azabicyclo[2.2.1]heptan-5-yl)pyrimido[5,4-d]pyrimidin-4-amine]: the pIC50 was 7.49 in assay [1]; 6.92 on ErbB2 WT; at most 5.00 against EGFR; 6.18 in assay [2]; at most 5.30 on EGFR wild type (EGFR WT).

As to `CN(c1ncc2ncnc(Nc3ccc(Oc4ccn5ncnc5c4)c(Cl)c3)c2n1)[C@H]1CCOC1` [Example 133, (S)—N8-(4-([1,2,4]triazolo[1,5-a]pyridin-7-yloxy)-3-chlorophenyl)-N2-methyl-N2-(tetrahydrofuran-3-yl)pyrimido[5,4-d]pyrimidine-2,8-diamine], the negative-log IC50 (pIC50) in assay [1] was 7.97; on ErbB2 WT it was 7.58; against EGFR it was 5.24; in assay [2], 7.26; at EGFR wild type (EGFR WT), at most 5.30.

Take `Cc1cc(Nc2ncnc3cnc(N4CC5CC(C4)O5)nc23)ccc1Oc1ccn2ncnc2c1` [Example 135, N-(4-([1,2,4]triazolo[1,5-a]pyridin-7-yloxy)-3-methylphenyl)-6-(6-oxa-3-azabicyclo[3.1.1]heptan-3-yl)pyrimido[5,4-d]pyrimidin-4-amine]: the negative-log IC50 (pIC50) in assay [1] is 7.58; at ErbB2 WT it was 7.34; on EGFR, at most 5.00; in assay [2] it was 6.29; against EGFR wild type (EGFR WT) it was at most 5.30.

Turning to `Cc1cc(Nc2ncnc3cnc(N4CCN(C)[C@H](C)C4)nc23)ccc1Oc1ccn2ncnc2c1` [Example 136, (R)—N-(4-([1,2,4]triazolo[1,5-a]pyridin-7-yloxy)-3-methylphenyl)-6-(3,4-dimethylpiperazin-1-yl)pyrimido[5,4-d]pyrimidin-4-amine], the pIC50 in assay [1] was 7.26; against ErbB2 WT, 7.23; on EGFR it was at most 5.00; in assay [2] it was 6.50; on EGFR wild type (EGFR WT), at most 5.30.

For the compound `Cc1cc(Nc2ncnc3cnc(N4CCCC4=O)nc23)ccc1Oc1ccn2ncnc2c1` [Example 137, 1-(8-((4-([1,2,4]triazolo[1,5-a]pyridin-7-yloxy)-3-methylphenyl)amino)pyrimido[5,4-d]pyrimidin-2-yl)pyrrolidin-2-one], the pIC50 in assay [1] is 7.01; on ErbB2 WT, 6.78; at EGFR, at most 5.00; in assay [2], 5.97; against EGFR wild type (EGFR WT) it was at most 5.30.

On to `Cc1cc(Nc2ncnc3cnc(N=S4(=O)CCOCC4)nc23)ccc1Oc1ccc2c(c1)ncn2C` [Example 138, 4-((8-((3-methyl-4-((1-methyl-1H-benzo[d]imidazol-5-yl)oxy)phenyl)amino)pyrimido[5,4-d]pyrimidin-2-yl)imino)-1,4λ^6-oxathiane 4-oxide], for which the pIC50 was 7.49 in assay [1]; 7.47 against ErbB2 WT; 5.31 against EGFR; 7.24 in assay [2]; at most 5.30 against EGFR wild type (EGFR WT).

With `Cc1cc(Nc2ncnc3cnc(N4CCCS4(=O)=O)nc23)ccc1Oc1ccc2c(c1)ncn2C` [Example 139, 2-(8-((3-methyl-4-((1-methyl-1H-benzo[d]imidazol-5-yl)oxy)phenyl)amino)pyrimido[5,4-d]pyrimidin-2-yl)isothiazolidine 1,1-dioxide], the pIC50 in assay [1] was 8.02; on ErbB2 WT it was 7.90; at EGFR, 5.80; in assay [2], 8.20; on EGFR wild type (EGFR WT), at most 5.30.

Turning to `Cc1cc(Nc2ncnc3cnc(N4CC(C)CS4(=O)=O)nc23)ccc1Oc1ccc2c(c1)ncn2C` (stereo not shown) [Example 140, 4-methyl-2-(8-((3-methyl-4-((1-methyl-1H-benzo[d]imidazol-5-yl)oxy)phenyl)amino)pyrimido[5,4-d]pyrimidin-2-yl)isothiazolidine 1,1-dioxide], the pIC50 is 7.67 in assay [1]; 7.69 at ErbB2 WT; 5.20 against EGFR; 8.09 in assay [2]; at most 5.30 against EGFR wild type (EGFR WT).

On to `CON1CCN(c2ncc3ncnc(Nc4ccc(Oc5ccc6c(c5)ncn6C)c(C)c4F)c3n2)CC1` [Example 142, N-(2-fluoro-3-methyl-4-((1-methyl-1H-benzo[d]imidazol-5-yl)oxy)phenyl)-6-(4-methoxypiperazin-1-yl)pyrimido[5,4-d]pyrimidin-4-amine 2,2,2-trifluoroacetate], for which, in assay [1], the IC50 – broadly, the concentration that gives 50% inhibition – is 24.2 nM. Further, the negative-log IC50 (pIC50) on ErbB2 WT was 7.29; on EGFR it was at most 5.00; in assay [2], 7.14; against EGFR wild type (EGFR WT), at most 5.30.

Compound `CN1CCN(c2ncc3ncnc(Nc4ccc(Oc5ccc6c(c5)ncn6C)c(Cl)c4)c3n2)CC1` [Example 143, N-(3-chloro-4-((1-methyl-1H-benzo[d]imidazol-5-yl)oxy)phenyl)-6-(4-methylpiperazin-1-yl)pyrimido[5,4-d]pyrimidin-4-amine 2,2,2-trifluoroacetate] displayed an IC50 in assay [1] of 35.1 nM. Besides, the pIC50 at ErbB2 WT was 7.29; against EGFR, 5.13; in assay [2] it was 7.55; against EGFR wild type (EGFR WT), at most 5.30.

`C[C@@H]1COCCN1c1ncc2ncnc(Nc3ccc(Oc4ccc5c(c4)ncn5C)c(Cl)c3)c2n1` [Example 144, (R)—N-(3-chloro-4-((1-methyl-1H-benzo[d]imidazol-5-yl)oxy)phenyl)-6-(3-methylmorpholino)pyrimido[5,4-d]pyrimidin-4-amine]: the pIC50 in assay [1] is 7.23; against ErbB2 WT it was 7.11; against EGFR, 5.16; in assay [2] it was 7.42; against EGFR wild type (EGFR WT), at most 5.30.

As to `Cn1cnc2cc(Oc3ccc(Nc4ncnc5cnc(N6CC[C@H](C#N)C6)nc45)cc3Cl)ccc21` [Example 152, (S)-1-(8-((3-chloro-4-((1-methyl-1H-benzo[d]imidazol-5-yl)oxy)phenyl)amino)pyrimido[5,4-d]pyrimidin-2-yl)pyrrolidine-3-carbonitrile 2,2,2-trifluoroacetate], in assay [1], it took 36.7 nM to reach half-maximal inhibition (IC50). For the same compound, the pIC50 against ErbB2 WT was 7.10; at EGFR it was at most 5.00; in assay [2] it was 7.50; on EGFR wild type (EGFR WT) it was at most 5.30.

Take `Cc1cc(Nc2ncnc3cnc(N4CCCO4)nc23)ccc1Oc1cc(F)c2c(c1)ncn2C` [Example 155, N-(4-((7-fluoro-1-methyl-1H-benzo[d]imidazol-5-yl)oxy)-3-methylphenyl)-6-(isoxazolidin-2-yl)pyrimido[5,4-d]pyrimidin-4-amine]: the pIC50 is 7.65 in assay [1]; 7.28 at ErbB2 WT; 5.37 against EGFR; 8.26 in assay [2]; at most 5.30 at EGFR wild type (EGFR WT).

For the compound `Cc1cc(Nc2ncnc3cnc(N4CC(O)(C(F)F)C4)nc23)ccc1Oc1ccc2c(c1)ncn2C` [Example 160, 3-(difluoromethyl)-1-(8-((3-methyl-4-((1-methyl-1H-benzo[d]imidazol-5-yl)oxy)phenyl)amino)pyrimido[5,4-d]pyrimidin-2-yl)azetidin-3-ol hydrochloride], in assay [1], the IC50 came to 20.3 nM. Further, the pIC50 at ErbB2 WT was 7.17; against EGFR, 5.17; in assay [2], 7.37; on EGFR wild type (EGFR WT), at most 5.30.

With `Cc1cc(Nc2ncnc3cnc(N(C)CC(O)C(F)(F)F)nc23)ccc1Oc1ccc2c(c1)ncn2C` (stereo not shown) [Example 188, 1,1,1-trifluoro-3-(methyl(8-((3-methyl-4-((1-methyl-1H-benzo[d]imidazol-5-yl)oxy)phenyl)amino)pyrimido[5,4-d]pyrimidin-2-yl)amino)propan-2-ol], the pIC50 in assay [1] is 7.56; at ErbB2 WT it was 7.57; against EGFR it was at most 5.00; in assay [2], 7.69; against EGFR wild type (EGFR WT), at most 5.30.
